Common to all, as to experiment: Kinase panel profiling at 1 µmol/L (MSA or IMAP), percentage inhibition
Assay type in all cases: biochemical

Test [1] addresses panel of 255 wild-type kinases (Homo sapiens, UniProt Q86Z02). Conditions: kinase HIPK1; 1 µmol/L single concentration; read-out: %-inhibition at 1 µmol/L, HIPK1.
In test [2] the target is panel of 255 wild-type kinases (Homo sapiens, UniProt P17612). The note with it: kinase PKACα; 1 µmol/L single concentration; read-out: %-inhibition at 1 µmol/L, PKACα.
The target of test [3] is T1, panel of 255 wild-type kinases (Homo sapiens, UniProt Q13976).
T1 sequence (Q13976 1-671): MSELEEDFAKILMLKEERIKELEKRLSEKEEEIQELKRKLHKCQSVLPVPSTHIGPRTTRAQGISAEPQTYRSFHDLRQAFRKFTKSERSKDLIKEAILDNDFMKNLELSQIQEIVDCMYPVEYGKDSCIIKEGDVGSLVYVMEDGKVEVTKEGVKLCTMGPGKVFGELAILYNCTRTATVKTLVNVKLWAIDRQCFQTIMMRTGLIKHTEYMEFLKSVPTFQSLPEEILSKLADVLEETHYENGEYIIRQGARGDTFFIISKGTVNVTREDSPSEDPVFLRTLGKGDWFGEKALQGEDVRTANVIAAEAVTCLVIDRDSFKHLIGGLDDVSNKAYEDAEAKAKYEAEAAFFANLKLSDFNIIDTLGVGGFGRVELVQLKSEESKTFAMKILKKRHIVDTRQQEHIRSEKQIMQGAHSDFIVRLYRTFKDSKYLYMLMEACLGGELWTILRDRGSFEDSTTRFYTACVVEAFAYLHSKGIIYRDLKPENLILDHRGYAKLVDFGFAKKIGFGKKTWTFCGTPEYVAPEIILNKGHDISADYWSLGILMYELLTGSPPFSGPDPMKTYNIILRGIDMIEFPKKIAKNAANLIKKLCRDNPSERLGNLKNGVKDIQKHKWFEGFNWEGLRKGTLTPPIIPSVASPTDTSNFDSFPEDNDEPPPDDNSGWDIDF
Conditions: kinase PGK; 1 µmol/L single concentration; read-out: %-inhibition at 1 µmol/L, PGK.

Test [4] addresses T2, panel of 255 wild-type kinases (Homo sapiens, UniProt Q8IWQ3).
T2 sequence (Q8IWQ3 1-736): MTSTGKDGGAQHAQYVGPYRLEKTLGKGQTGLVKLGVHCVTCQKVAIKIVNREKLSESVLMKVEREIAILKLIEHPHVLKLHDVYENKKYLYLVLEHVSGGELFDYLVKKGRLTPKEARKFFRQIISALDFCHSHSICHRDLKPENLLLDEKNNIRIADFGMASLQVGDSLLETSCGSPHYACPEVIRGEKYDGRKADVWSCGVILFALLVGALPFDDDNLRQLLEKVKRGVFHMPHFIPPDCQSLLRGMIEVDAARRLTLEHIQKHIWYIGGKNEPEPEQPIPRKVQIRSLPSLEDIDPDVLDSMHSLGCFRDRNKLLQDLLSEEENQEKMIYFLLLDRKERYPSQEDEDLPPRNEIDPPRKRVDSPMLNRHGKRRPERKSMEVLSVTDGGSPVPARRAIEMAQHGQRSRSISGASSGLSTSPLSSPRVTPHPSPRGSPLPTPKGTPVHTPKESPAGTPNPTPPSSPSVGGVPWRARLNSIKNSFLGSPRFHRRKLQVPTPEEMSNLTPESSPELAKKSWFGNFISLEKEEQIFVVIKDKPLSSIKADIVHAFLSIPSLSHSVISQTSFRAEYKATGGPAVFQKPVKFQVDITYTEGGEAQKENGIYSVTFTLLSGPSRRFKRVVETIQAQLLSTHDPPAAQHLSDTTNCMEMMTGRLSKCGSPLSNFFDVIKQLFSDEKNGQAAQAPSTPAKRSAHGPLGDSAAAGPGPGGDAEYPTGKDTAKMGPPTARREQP
Conditions: BRSK2 kinase assay; 1 µmol/L single concentration; read-out: %-inhibition BRSK2.

In test [5] the target is panel of 255 wild-type kinases (Homo sapiens, UniProt Q13177). The note with it: PAK2; 1 µmol/L single concentration; read-out: %-inhibition, PAK2.
In test [6] the target is panel of 255 wild-type kinases (Homo sapiens, UniProt P49759). Conditions: kinase CLK1; 1 µmol/L single concentration; read-out: %-inhibition at 1 µmol/L, CLK1.
The target of test [7] is panel of 255 wild-type kinases (Homo sapiens, UniProt Q15418). The note with it: kinase RSK1; 1 µmol/L single concentration; read-out: %-inhibition at 1 µmol/L, RSK1.
In test [8] the target is T3, panel of 255 wild-type kinases (Homo sapiens, UniProt O00141).
T3 sequence (O00141 1-431): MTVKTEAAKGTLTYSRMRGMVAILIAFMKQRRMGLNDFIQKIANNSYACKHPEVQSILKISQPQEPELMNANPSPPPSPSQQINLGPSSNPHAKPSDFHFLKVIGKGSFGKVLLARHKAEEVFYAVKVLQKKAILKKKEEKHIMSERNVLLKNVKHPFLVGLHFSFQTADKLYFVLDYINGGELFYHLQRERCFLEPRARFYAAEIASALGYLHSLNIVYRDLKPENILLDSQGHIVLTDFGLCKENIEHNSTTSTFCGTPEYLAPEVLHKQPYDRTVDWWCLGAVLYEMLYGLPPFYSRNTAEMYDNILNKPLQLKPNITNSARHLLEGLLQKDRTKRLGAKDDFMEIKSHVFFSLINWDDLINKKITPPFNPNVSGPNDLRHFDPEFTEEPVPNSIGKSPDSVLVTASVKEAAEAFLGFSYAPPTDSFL
Conditions: kinase SGK; 1 µmol/L single concentration; read-out: %-inhibition at 1 µmol/L, SGK.

The target in test [9] is panel of 255 wild-type kinases (Homo sapiens, UniProt P49760). Conditions: kinase CLK2; 1 µmol/L single concentration; read-out: %-inhibition at 1 µmol/L, CLK2.
Test [10] addresses panel of 255 wild-type kinases (Homo sapiens, UniProt Q13554). Conditions: CaMK2β kinase assay; 1 µmol/L single concentration; read-out: %-inhibition CaMK2β.
The target in test [11] is panel of 255 wild-type kinases (Homo sapiens, UniProt P17252). The note with it: kinase PKCα; 1 µmol/L single concentration; read-out: %-inhibition at 1 µmol/L, PKCα.

Structures are written as SMILES.

Take `Cc1cc(Nc2ncnc3ccc(NC4=NC(C)(C)CO4)cc23)ccc1Oc1ccn2ncnc2c1` [tucatinib]: the inhibition at 1 µM in test [1] was 11%; in test [2], -20%; in [3] it was 0.26%; in test [4], 7%; in [5], -1.88%; in test [6], 7%. The inhibition at 1 µM is -4.66% in test [7]; 0.299% in test [8]; 5% in [9]; 1.33% in test [10]; 5% in [11].

As for `C=CC(=O)N1CCC([C@@H]2CCNc3c(C(N)=O)c(-c4ccc(Oc5ccccc5)cc4)nn32)CC1` [zanubrutinib], the inhibition at 1 µM in [1] was -3.58%; in test [2] it was -13%; in [3], -2.64%; in test [4], 0.0746%; in test [5], 10%; in [6], 4.66%. Also, the inhibition at 1 µM was -2.79% in test [7]; -0.675% in [8]; 7.62% in test [9]; 2.44% in [10]; -2.63% in [11].

(Values after paper PMC9516332 (Frontiers in Oncology, 2022).)
